Tests used:
[1] = tested on: HvGR (Host Versus Graft Reaction) in Rats; assay: Inhibitory activities against HvGR in rats, combination with immunosuppressants (Test Example 3); format: in vivo, Lewis rats; details: oral 5 ml/kg once daily for 4 successive days; suspensions: cyclosporin A 0.08 mg/5 ml, tacrolimus 0.08 mg/5 ml, Compound A 0.008 mg/5 ml; popliteal lymph node weight
Description: Determination of Inhibitory Activities of Compounds against HvGR (Host Versus Graft Reaction) in Rats (1) Two strains of rats (Lewis rats (male, 6 weeks of age, Charles River Japan Inc.) and […] (male, 7 weeks of age, Japan SLC Inc.) were used. Five rats/group were used. […] Spleen cells were isolated from the spleens of […] or Lewis rats and floated in RPMI1640 medium (Life Technologies Inc.) at a concentration of 1×10^8 cells/ml. 0.1 ml of the medium containing the free-floating spleen cells of […] or 0.1 ml of the medium containing the free-floating spleen cells of Lewis rats were intracutaneously injected into the bilateral foot-pads of hindlimbs of Lewis rats. (3) Administration of Compounds […] In both the “same strain group” (Lewis rats treated with spleen cells of Lewis rats but not with the compounds) and “control group” (Lewis rats treated with the spleen cells of […] but not with the compounds), 0.5% tragacanth solution was orally administered. […] The inhibitory activities of the compounds were calculated from the “HvGR-induced changes in the popliteal lymph node weights” of individual rats in drug-treated group versus the average “HvGR-induced changes in the popliteal lymph node weights” in the control group.

[2] = tested on: Adjuvant-Induced Arthritis; assay: Inhibitory activities against adjuvant-induced arthritis (Test Example 2); format: in vivo, rats (usually Lewis rats); details: oral, once daily for 21 successive days; foot swelling volume one day after final administration
Description: Determination of Inhibitory Activities of Compounds against Adjuvant-Induced Arthritis
(1) Preparation of Adjuvant
Adjuvant was prepared by suspension of killed Mycobacterium butyricum in mineral oil at a concentration of 2 mg/ml, followed by application of ultrasonic waves.
(2) Preparation of Test Compound
Test compounds were suspended or dissolved in 0.5% tragacanth solution.
(3) Induction of Adjuvant Arthritis
0.05 ml of adjuvant solution prepared as described in (1) was intracutaneously injected into the right foot-pad of rats (usually Lewis rats). Five rats/group were usually used. Adjuvant was not injected in one group of rats (normal group).
(4) Administration of Compound
Compounds prepared as described in (2) were orally administered to rats at a volume of 5 ml/kg once daily for 21 successive days. 0.5% tragacanth solution was similarly administered to rats in one group injected adjuvant (control group) and a group not injected adjuvant.
(5) Calculation of Inhibitory Activities of Compounds against Adjuvant Arthritis
One day after the final drug administration, the foot volume of each rat was measured by an apparatus for determination of the volume. The average value in normal rats was subtracted from the individual values in the drug-treated and control groups. The difference was expressed as the swelling volume. Inhibitory rate of the compound was calculated from the ratio of the individual swelling volume of the rat treated with the compound to the average swelling volume in the control group.
Inhibitory activities of compounds were expressed as ID50 values (mg/kg) calculated by least squares method based on the doses of the compound and their inhibitory ratios.

[3] = tested on: Host Versus Graft Reaction in Rats; assay: Inhibitory activities against host versus graft reaction (HvGR) in rats (Test Example 1); format: in vivo; details: oral, once daily for 4 successive days; HvGR-induced change in popliteal lymph node weight; Lewis rats injected with WKAH/Hkm spleen cells
Description: Determination of Inhibitory Activities of Compounds against Host Versus Graft Reaction in Rats
(1) Two strains of rats [Lewis rats (male, 6 weeks of age, Charles River Japan Inc.) and WKAH/Hkm rats (male, 7 weeks of age, Japan SLC Inc.) were used. Five rats/group were used.
Spleen cells were isolated from the spleens of WKAH/Hkm and Lewis rats and floated in RPMI1640 medium (Life Technologies Inc.) at a concentration of 1×10^8 cells/ml. 0.1 ml of the medium containing the free-floating spleen cells of WKAH/Hkm rats or Lewis rats (1×10^7 of the spleen cells) was then intracutaneously injected into the bilateral foot-pads of hindlimbs of Lewis rats.
(3) Administration of the Compounds
Compounds were suspended in 0.5% tragacanth solution. The suspended compounds were orally administered to rats in the drug-treated group (Lewis rats injected with spleen cells of WKAH/Hkm rats and treated with the compound) at a volume of 5 ml/kg once daily for 4 successive days starting on the day of spleen cell injection. The tragacanth solution (0.5%) was orally administered, instead of the compound-suspended solution, to rats in the “same strain group” (Lewis rats injected with spleen cells of Lewis rats) and the control group (Lewis rats injected with spleen cells of WKAH/Hkm rats and not treated with the compound).
(4) Determination of Inhibitory Activities of Compounds against HvGR
Average weight of the popliteal lymph nodes of the same strain rats was subtracted from individual weights of the popliteal lymph nodes of individual rats (“HvGR-induced changes in weight of the popliteal lymph nodes”). The inhibitory activities of compounds were calculated from the “HvGR-induced changes in weights of the popliteal lymph nodes” of individual rats in the drug-treated group versus the average “HvGR-induced changes in weights of the popliteal lymph nodes” in the control group. The inhibitory activities of compounds were expressed as ID50 values (mg/kg) as calculated by least squares method based on the doses of compounds administered and inhibitory activities at these doses.

[4] = tested on: Mice GvHD (Graft Versus Host Disease); assay: Inhibitory activities against mice GvHD (Test Example 4); format: in vivo, BDF1 mice; details: oral 10 ml/kg once daily for 10 successive days; suspensions: cyclosporin A 0.1 mg/10 ml, tacrolimus 0.2 mg/10 ml, Compound B 0.01 mg/10 ml; spleen weight compensated for body weight
Description: Determination of Inhibitory Activities of Compounds against Mice GvHD (Graft Versus Host Disease) (1) Two strains of mice. [BDF1 mice (male, 6 weeks of age, Charles River Japan Inc.) and C57BL/6 mice (male, 7 weeks of age, Charles River Japan Inc.)] were used. Five mice/group (hosts) were used. (2) Induction of GvHD Spleen cells were isolated from the spleens of C57BL/6 mice or BDF1 mice and floated in RPMI1640 medium (Life Technologies Inc.) at a concentration of 2×10^7 cells/ml. 0.5 ml of the medium containing the free-floating spleen cells of C57BL/6 mice) was intravenously injected into the tail vein of BDF1 mice (GvHD induction group) and the same volume of the medium containing free-floating spleen cells of BDF1 mice was intravenously injected into the tail vein of BDF1 mice (the “same strain group”). (3) Administration of Compounds […] Body weight was determined and spleens were weighed, and “spleen weight compensated for the body weight following injection of GvHD” was calculated by dividing the spleen weight by the body weight. […] The inhibitory activities of compounds were calculated from the ratios of individual “spleen weight compensated for body weight following injection of GvHD” to the average “spleen weight compensated for body weight following injection of GvHD” in the control group.

[5] = tested on: Rejection Response against Skin Transplantation of Mice; assay: Inhibitory activities against rejection response against skin transplantation of mice (Test Example 5); format: in vivo; details: oral 10 ml/kg once daily for 14 successive days from transplantation; suspensions: cyclosporin A 30 mg/10 ml, tacrolimus 3 mg/10 ml, Compound B 0.1 mg/10 ml; C57BL/6N skin on BALB/cAnN mice
Description: (1) Two strains of mice [C57BL/6N mice (female, 5 weeks of age, Charles River Japan Inc.) and BALB/cAnN mice (female, 5 weeks of age, Charles River Japan Inc.)] were used. Ten mice/group (transplanted individuals) were used.
C57BL/6N mice were sacrificed by cervical dislocation and their skins removed. The skins were cut to 8-mm diameter sizes by biopsy punch (MK706, 8 mm, Kai Industries Co., Ltd.). Next, 8 mm diameter sections of the back skins of BALB/cAnN mice anaesthetized with Avertin were removed by biopsy punch. The skin was cut along the edge of the damaged area by fine ophthalmic scissors. The previously cut skins of C57BL/6N mice were transplanted to the removed areas of the skin in BALB/cAnN mice. The transplanted areas were fixed with Aron Alpha (Sankyo Co., Ltd.). […]
On the 6th day after transplantation (the day of transplantation was defined as day 0), the Coban, SYLKYTEX, sterilized gauze, and Sofratulle were gently removed paying attention not to damage the skin by a pair of scissors. From the next day to 20 days after transplantation, it was determined whether rejection responses occurred in the transplanted skin. This determination was carried out blind, and the median day when the rejection response occurred was calculated.

SMILES | HvGR Inhibitory Rate (%) [1] | ID50 values [2] | HvGR ID50 values [3] | GvHD Inhibitory Rate (%) [4] | Median Day of Rejection Response [5]
CC(N)(CO)CCc1ccc(C(=O)CCCCc2ccccc2)s1.O=C(O)/C=C\C(=O)O (stereo not shown) [Compound A, 2-amino-2-methyl-4-[5-(5-phenylpentanoyl]thiophen-2-yl]butan-1-ol maleate] | 16.0% | – | – | – | –
C[C@](N)(CO)CCc1ccc(C#CCCCC2CCCCC2)o1.O=C(O)C(=O)O [Example 2, (2R)-2-Amino-2-methyl-4-[5-(5-cyclohexylpent-1-ynyl)furan-2-yl]butan-1-ol oxalate] | – | 0.0899 mg/kg | 0.714 mg/kg | – | –
C[C@](N)(CO)CCc1ccc(C#CCCOC2CCCCC2)o1.O=C(O)C(=O)O [Example 3, (2R)-2-Amino-2-methyl-4-[5-(4-cyclohexyloxybut-1-ynyl)furan-2-yl]butan-1-ol oxalate] | – | 0.0774 mg/kg | 0.116 mg/kg | – | –
Cn1c(C#CCCCc2ccccc2)ccc1CC[C@@](C)(N)CO.O=C(O)C(=O)O [Example 9, (2R)-2-Amino-2-methyl-4-[1-methyl-5-(5-phenylpent-1-ynyl)pyrrol-2-yl]butan-1-ol oxalate] | – | – | 0.120 mg/kg | – | –
Cn1c(C#CCCOC2CCCCC2)ccc1CC[C@@](C)(N)CO.Cn1c(C#CCCOC2CCCCC2)ccc1CC[C@@](C)(N)CO.O=C(O)C(=O)O [Example 10, (2R)-2-Amino-2-methyl-4-[1-methyl-5-(4-cyclohexyloxybut-1-ynyl)pyrrol-2-yl]butan-1-ol ½-oxalate] | – | – | 0.276 mg/kg | – | –
C[C@](N)(CO)CCc1ccc(C#CCCCc2cccc(C(F)(F)F)c2)o1.O=C(O)C(=O)O [Example 15, (2R)-2-Amino-2-methyl-4-{5-[5-(3-trifluoromethylphenyl)pent-1-ynyl]furan-2-yl}butan-1-ol oxalate] | – | – | 0.304 mg/kg | – | –
C[C@](N)(CO)CCc1ccc(C#CCCCC2CCCCC2)o1.Cl [Example 19, (2R)-2-Amino-2-methyl-4-[5-(5-cyclohexylpent-1-ynyl)furan-2-yl]butan-1-ol hydrochloride] | – | 0.108 mg/kg | 0.097 mg/kg | – | –
C[C@](N)(CO)CCc1ccc(C#CCCOC2CCCCC2)o1.Cl [Example 20, (2R)-2-Amino-2-methyl-4-[5-(4-cyclohexyloxybut-1-ynyl)furan-2-yl]butan-1-ol hydrochloride] | – | 0.102 mg/kg | 0.082 mg/kg | – | –
Cl.Cn1c(CC[C@@](C)(N)CO)ccc1C(=O)CCCCc1ccccc1 [Example 33, (2R)-2-Amino-2-methyl-4-[1-methyl-5-(5-phenylpentanoyl)pyrrol-2-yl]butan-1-ol hydrochloride] | – | 0.0941 mg/kg | 0.013 mg/kg | −2.9% | 15.0 days
C=CCC1C=C(C)CC(C)CC(OC)C2OC(O)(C(=O)C(=O)N3CCCCC3C(=O)OC(C(C)=CC3CCC(O)C(OC)C3)C(C)C(O)CC1=O)C(C)CC2OC (stereo not shown) [Tacrolimus, 17-allyl-1,14-dihydroxy-12-[2-(4-hydroxy-3-methoxycyclohexyl)-1-methylvinyl]-23,25-dimethoxy-13,19,21,27-tetramethyl-11,28-dioxa-4-azatricyclo[22.3.1.0^4,9]octacos-18-ene-2,3,10,16-tetrone, reference compound] | 25.8% | – | – | 7.6% | 11.0 days

Source: patent publication US7199150B2, “Amino alcohol compounds” (Sankyo Company, Limited, priority 2002, dated 2007)
